The results in this text go back to publication PMC11462347 (Heliyon, 2024).

The target of assay [1] is T1, tyrosinase (Agaricus bisporus, UniProt C7FF04). Kind of assay: biochemical.
Target sequence in this assay (C7FF04 1-392): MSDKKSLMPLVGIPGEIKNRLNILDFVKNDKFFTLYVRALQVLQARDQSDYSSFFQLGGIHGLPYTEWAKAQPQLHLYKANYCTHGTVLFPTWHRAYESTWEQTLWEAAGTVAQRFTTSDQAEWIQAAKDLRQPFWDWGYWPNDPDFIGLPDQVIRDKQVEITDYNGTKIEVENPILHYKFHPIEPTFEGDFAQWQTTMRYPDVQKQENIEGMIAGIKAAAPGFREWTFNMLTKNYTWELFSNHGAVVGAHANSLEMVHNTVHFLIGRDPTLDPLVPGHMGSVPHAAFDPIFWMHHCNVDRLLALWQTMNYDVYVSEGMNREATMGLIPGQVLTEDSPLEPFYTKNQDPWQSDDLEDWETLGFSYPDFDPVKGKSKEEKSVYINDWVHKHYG
Assay [2] addresses T1, tyrosinase. Kind of assay: Kinetic assay for inhibition action. In kind it is biochemical. The note with it: for Inhibition type: Lineweaver-Burk plot.
Target sequence in this assay (C7FF04 1-392): as above
Assay [3] has as its target T1, tyrosinase. As to the kind of experiment: Fluorescence quenching of tyrosinase. The class given is binding. The note with it: for Kd: Ka; for quenching mechanism: Ksv decreasing with temperature; for ΔH / ΔS: van't Hoff equation, 298-310 K.
Target sequence in this assay (C7FF04 1-392 limits assumed): as the sequence (C7FF04 1-392) above

With `COc1cc(-c2oc3cc(O)cc(O)c3c(=O)c2O)ccc1O` [Isorhamnetin], the IC50 in assay [1] turned out to be 96.4 ± 9.9 µM. In addition, in assay [2], the Inhibition type result was “Mixed”. Besides, in assay [2] (listed as isorhamnetin), the Inhibition type entry was “mixed inhibition”. The compound also displayed a Kis in assay [2] (binding to enzyme-substrate complex) of 0.924 ± 0.02 mg/mL. Besides, in assay [3], the “numbers of binding sites (n)” value was approximately 1, the quenching mechanism entry is “static”, the ΔH is -4.48 ± 2.1 kJ/mol and the ΔS was −5.10 ± 1.19 J mol^−1k^−1. Further, the Kq in assay [3] (298 K) is 0.73 × 10^12 L mol^−1 S^−1. For the same compound, the Kq in assay [3] (304 K) is on record as 0.65 × 10^12 L mol^−1 S^−1. Moreover, the Kq in assay [3] (310 K) is recorded as 0.51 × 10^12 L mol^−1 S^−1. In assay [3] (T 298 K), binding was put at a Kd of 5.46 µM, the KSV is recorded as 0.73 ± 0.01 10^4L·mol^−1, the “n (number of binding sites)” value is on record as 1.10 and the ΔG is -2.96 ± 0.01 kJ/mol. In assay [3] (T 304 K), the Kd is 5.18 µM, the KSV is 0.65 ± 0.02 10^4L·mol^−1, the “n (number of binding sites)” value turned out to be 1.12 and the ΔG was -2.93 ± 0.01 kJ/mol. Moreover, in assay [3] (T 310 K), the affinity, expressed as Kd, was 9.8 µM; the KSV is on record as 0.51 ± 0.01 10^4L·mol^−1; the “n (number of binding sites)” value came out at 1.08; the ΔG was -2.90 ± 0.02 kJ/mol.
Consider `O=c1c(O)c(-c2ccc(O)cc2)oc2cc(O)cc(O)c12` [Kaempferol], for which it took 82.1 ± 13.7 µM to reach half-maximal inhibition in assay [1] (IC50). Besides, the Inhibition type entry in assay [2] is recorded as “Competitive”. In assay [3], the “numbers of binding sites (n)” value is recorded as approximately 1, the quenching mechanism entry is listed as “static”, the ΔH came out at 10.42 ± 1.1 kJ/mol and the ΔS is reported as 45.03 ± 7.1 J mol^−1k^−1. The Kq in assay [3] (298 K) was 1.03 × 10^12 L mol^−1 S^−1. For the same compound, the Kq in assay [3] (304 K) is recorded as 0.83 × 10^12 L mol^−1 S^−1. The Kq in assay [3] (310 K) is on record as 0.73 × 10^12 L mol^−1 S^−1. Further, in assay [3] (T 298 K), the Kd was 47.6 µM, the KSV is on record as 1.03 ± 0.04 10^4L·mol^−1, the “n (number of binding sites)” value amounted to 1.08 and the ΔG was -3.00 ± 0.06 kJ/mol. Besides, in assay [3] (T 304 K), the Kd was 16.9 µM, the KSV was 0.83 ± 0.1 10^4L·mol^−1, the “n (number of binding sites)” value came to 1.22 and the ΔG is -3.27 ± 0.03 kJ/mol. Further, in assay [3] (T 310 K), the Kd was 12.3 µM, the KSV was 0.73 ± 0.02 10^4L·mol^−1, the “n (number of binding sites)” value was found to be 1.27 and the ΔG was -3.54 ± 0.05 kJ/mol.
For the compound `O=c1c(O)c(-c2ccc(O)c(O)c2)oc2cc(O)cc(O)c12` [Quercetin], the Inhibition type entry in assay [2] is recorded as “Competitive”. Moreover, in assay [3], the “numbers of binding sites (n)” value was approximately 2, the quenching mechanism result was “static”, the ΔH was 9.12 ± 1.3 kJ/mol and the ΔS stood at 43.56 ± 3.21 J mol^−1k^−1. Moreover, in assay [3] (298 K), the Kq is on record as 1.44 × 10^12 L mol^−1 S^−1. In addition, in assay [3] (304 K), the Kq is given as 1.17 × 10^12 L mol^−1 S^−1. Moreover, the Kq in assay [3] (310 K) is reported as 1.13 × 10^12 L mol^−1 S^−1. Besides, in assay [3] (T 298 K), the KSV was 1.44 ± 0.21 10^4L·mol^−1, the “n (number of binding sites)” value is 1.44 and the ΔG was -3.86 ± 0.05 kJ/mol. In assay [3] (T 304 K), the KSV is reported as 1.17 ± 0.11 10^4L·mol^−1, the “n (number of binding sites)” value was 1.46 and the ΔG is -4.12 ± 0.02 kJ/mol. Further, in assay [3] (T 310 K), the KSV is on record as 1.13 ± 0.15 10^4L·mol^−1, the “n (number of binding sites)” value came out at 1.61 and the ΔG is -4.39 ± 0.02 kJ/mol.
